{"source": "patent US20200255828A1", "about": "“METHODS AND COMPOSITIONS FOR ALTERING FUNCTION AND STRUCTURE OF CHROMATIN LOOPS AND/OR DOMAINS” (THE BROAD INSTITUTE, INC., priority 2017, published 2020)", "system": "HCT-116 RAD21-mAC cells", "assay": "In situ Hi-C: loops and loop domains (HiCCUPS, APA), auxin treatment and withdrawal time course", "format": "cell-based, human", "source_text": "To examine loop domains, Applicants used in situ Hi-C(Rao et al., 2014), which combines DNA-DNA proximity ligation and high-throughput sequencing to create maps showing the frequency of physical contact between all pairs of loci across the genome. Loop domains are manifest in Hi-C maps as a bright “peak” pixel (indicating the link between the two loop anchors) at the corner of a bright square (indicating the presence of a contact domain).\nTo see if these changes were reversible, Applicants performed a time-course analysis in which untreated cells were exposed to auxin for six hours, after which auxin was withdrawn (FIG. 2B, FIG. 9B). Low resolution Hi-C was performed immediately before treatment, as well as at a series of time points during treatment (at 20, 40, 60, 240, and 360 minutes) and after withdrawal (at 20, 40, 60, 180, 360, 1080, and 1440 minutes). To assess whether the anchors of the loop domains seen in the pre-treatment data continued to be linked (that is, co-located in space) subsequently, Applicants used a method called Aggregate Peak Analysis (APA) (Durand et al., 2016b), which superimposes the signals from a set of peak pixels, thus allowing Applicants to observe an aggregate signal even in sparse datasets where individual signals cannot be resolved (FIG. 2B). The APA signal was initially strong, but was gone by 40 minutes after treatment, and remained absent throughout the rest of the treatment period (FIG. 2B, 9B). The disappearance of the loop-domain links closely mirrored the depletion of cohesin levels in the samples during the treatment period, as ascertained by measuring mClover fluorescence (FIG. 8).\nFor our time course experiments, cells were treated with 500 uM IAA and crosslinked with 1% formaldehyde directly in wells of a 6-well plate at various time points after treatment (20, 40, 60, 240, 360 minutes). For the auxin withdrawal experiments, after 6 hours treatment with 500 um IAA, the cells were trypsinized, washed twice in fresh media and replated in 6-well plates in fresh media. They were then crosslinked with 1% formaldehyde directly in the 6-well plates at various time points after auxin withdrawal (20, 40, 60, 180, 360, 1080, 1440 minutes).\nApplicants generated 69 in situ Hi-C libraries using the MboI restriction enzyme following the protocol described in (Rao et al., 2014) without modifications. In brief, the in situ Hi-C protocol involves crosslinking cells with formaldehyde, permeabilizing them with nuclei intact, digesting DNA with a suitable 4-cutter restriction enzyme, filling the 5′-overhangs while incorporating a biotinylated nucleotide, ligating the resulting blunt-end fragments, shearing the DNA, capturing the biotinylated ligation junctions with streptavidin beads, and analyzing the resulting fragments with paired-end sequencing.\nApplicants generated 7 libraries each for the main maps (untreated HCT-116 RAD21-mAC cells and HCT-116 RAD21-mAC cells treated for 6 hours with IAA) comprised of two sets of biological replicates each (three and four technical replicate libraries per biological replicate). In addition, Applicants generated four technical replicate libraries each for untreated and treated HCT-116 RAD21-mAC cells after cell synchronization and arrest. Applicants also generated an additional 5 libraries from untreated HCT-116 RAD21-mAC cells and 4 libraries from HCT-116 RAD21-mAC cells treated for 6 hours with IAA (two additional biological replicates each) that were not included in our main maps, but were used for analysis of higher-order contacts (see below). Applicants generated four libraries (two biological replicates) for each of our loop-resolution maps along the auxin withdrawal time course (20, 40, 60 and 180 mins after auxin withdrawal). Finally, Applicants generated two technical replicate libraries per time point of our auxin treatment and withdrawal time course. […]", "note": "Several values for one entry are separate records, joined by “and”; a condition that tells them apart may be missing. Identical values can stand only once."}
{"smiles": "O=C(O)Cc1c[nH]c2ccccc12", "note": "[auxin, indole-3-acetic acid]", "values": [{"measurement": "APA score for all loops after auxin treatment", "setting": "10 kb resolution, >300 kb, untreated 2.09", "result": 0.78}, {"measurement": "APA score for loop domains after auxin treatment", "setting": "10 kb resolution, >300 kb, untreated 2.10", "result": 0.78}, {"measurement": "number of loop domains found after auxin treatment", "setting": "2,140 in untreated cells, all 9 false positives", "result": 9}, {"measurement": "time after auxin withdrawal by which APA signal largely recovered", "setting": "after 6 hours auxin", "result": "≤ 1", "unit": "h"}, {"measurement": "time after auxin withdrawal with strong loop domain signal", "setting": "after 6 hours auxin", "result": "≤ 60", "unit": "min"}, {"measurement": "number of loops annotated in auxin-treated cells", "setting": "default HiCCUPS 5, 10, 25 kb, 3,170 in untreated", "result": 81}, {"measurement": "loops lost after auxin treatment", "setting": "default HiCCUPS parameters", "result": "> 97% and ~98%"}, {"measurement": "time after auxin withdrawal at which reformation of fast loop domains is apparent", "setting": "fast loop domains", "result": "20 to 40", "unit": "min"}, {"measurement": "time after auxin withdrawal until reformation of slow loop domains is seen", "setting": "slow loop domains", "result": 3, "unit": "h"}]}
